# Data from patent US20180333386A1, “AGENTS USEFUL FOR TREATING FRIEDREICH'S ATAXIA AND OTHER NEURODEGENERATIVE DISEASES” (IXCHEL PHARMA LLC, priority 2011, published 2018).
# Entries after “also recorded” stand apart in the source; their conditions may differ. Structures can show the parent of a compound that is named as a salt.
# Tests used:
# [1] = system: frataxin deficient 50B11 dorsal root ganglion cell line; assay: Thiol-antioxidant inhibitors in siRNA-mediated frataxin deficient 50B11 dorsal root ganglion cell line; assay type: cell-based; conditions: for death of neurons with frataxin deficiency on treatment: siRNA frataxin knockdown vs. control
# Method: Therefore, 11 inhibitors of these antioxidants were tested in siRNA-mediated frataxin deficient 50B11 dorsal root ganglion cell line. […] The major mitochondrial antioxidant system is thioredoxin reductase. Auranofin is a specific inhibitor of thioredoxin reductase, and diamide is a known oxidizer of thioredoxin. Thus the diamide screen identifies compounds that rescue from thioredoxin reductase deficiency, which include inducers of Nrf2, which are known to induce thioredoxin reductase and other antioxidant functions.
# [2] = system: human FRDA patient fibroblasts; assay: Diamide screening assay: protection of FRDA patient fibroblasts from diamide toxicity (Calcein-AM viability); assay type: cell-based; conditions: for EC50: Homo sapiens, Fibroblast; for EC50 / maximum effect of protection from diamide toxicity, fold increase from baseline: n=3; for maximum effect of protection from diamide toxicity, fold increase from baseline: dose-response; for protection from diamide toxicity: 200 micromolar diamide, result in words
# Excerpt: The cell-based assay was further optimized for high-throughput screening in 96-well plates, with an excellent screening window and low variability, represented by a Z′ value of 0.75 (n=5) and was used to screen a library of 1600 drugs that have been approved for clinical use in the USA. Drugs that rescued at DMSO mean+two standard deviations were repeated an additional two times. Compounds that rescued in >2 screens advanced to secondary screening, which included replication of protective effect in a concentration-dependent manner, 0.01-10 μM. […] Additional mechanisms are listed below.
# Diamide Screening Method Format: On the day one of the assay, cell density was determined using the Vi-Cell counter, and a volume corresponding to 5,500 human FRDA patient fibroblasts per well was aliquoted into 96-well black/clear poly-d-lysine coated plates in growth media, and the cells were allowed 3 hours to attach. Drugs (10 mM stock in DMSO) are dispensed into wells after an intermediate dilution in PBS, giving a final DMSO concentration of 0.1% using an electronic multichannel pipette. Test compounds were tested at 10 micromolar. There were 8 negative control (0.1% DMSO only) and 8 positive control (300 micromolar DTT) wells on each plate. Plates were incubated at 37 C and 5% CO2 for twenty-four hours after which 200 micromolar diamide was added to all wells. Plates were incubated for an additional 16 hours as before. Cells were washed with PBS and incubated with Calcein-AM cell viability dye (Invitrogen, Carlsbad, Calif., USA) and fluorescence was read with a PolarStar Omega plate reader (BMG LabTech, Cary, N.C.). Hits were scored as Basal Median+3×MAD.
# [3] = system: frataxin (FXN) protein in HeLa cells; assay: Frataxin protein level in HeLa cells by Western blot; assay type: cell-based, human
# Method: (§1) To test if one mechanism of protection from diamide toxicity for dyclonine was an increase in frataxin protein levels, HeLa cells or FRDA patient lymphoblasts were cultured for 48 hr in the presence of 10 micromolar dyclonine in 6 well dishes. Cells were harvested and whole cell lysates were analyzed by Western blot (protocol below). Representative blots are shown for HeLa cells (FIG. 5A) and FRDA and healthy siblings lymphoblasts (FIG. 5B), as well as densitometry normalization to actin. Dyclonine induction of FXN levels was consistent over multiple experiments (FIG. 5C).
# (§2) Western Blot Protocol: Forty micrograms of whole-cell lysates were analyzed on […] Bis-Tris gels (Invitrogen, Carsbad, Calif., USA). Electrophoresis was carried out according to the manufacturer's instruction. After electrophoresis, the proteins were transferred to nitrocellulose membranes by iBlot device (Invitrogen). The membranes were blocked with blocking buffer (Odyssey, Lincoln, Nebr., USA) for 1 h and incubated overnight with primary antibodies in blocking buffer: anti-frataxin anti-β-actin, tubulin, (Sigma). Afterwards, the membranes were incubated with a corresponding pair of IRDye 680CW- and IRDye 800CW-coupled (Odyssey) secondary antibodies for 1 h. The membranes were washed four times with 1× Tris-buffered saline with Tween 20 and proteins were visualized with a LI-COR infrared imager (Odyssey). The pictures were processed by Odyssey version 3.0 infrared imaging software.
# (§3) An additional hit in the diamide screening assay in FRDA fibroblasts was dimethyl fumarate (protocol above). […] To test if the mechanism of protection from diamide toxicity was an increase in frataxin protein levels, HeLa cells or FRDA patient lymphoblasts were cultured for 48 hr in the presence of 0.03-30 micromolar dimethyl fumarate in 12-well dishes. Cells were harvested and whole cell lysates were analyzed by Western blot (protocol above). Representative blots are shown for HeLa cells (FIG. 9A) and FRDA lymphoblasts (FIG. 9B). FXN was induced 1.37 fold ±0.1 (n=3) in HeLa cells, and 2.4 fold ±0.9 (n=3) in FRDA lymphoblasts.
# [4] = system: frataxin (FXN) protein in FRDA patient lymphoblasts; assay: Frataxin protein level in FRDA patient lymphoblasts by Western blot; assay type: cell-based, human; conditions: 48 hr
# Method: as §1, §2, §3
# An additional hit in the diamide screening assay (protocol above) in FRDA fibroblasts was the phenathiazine, tolonium cl. […] To test if the mechanism of protection from diamide toxicity was an increase in frataxin protein levels, the phenothiazines tolonium cl and methylene blue were tested. […] Cells were harvested and whole cell lysates were analyzed by Western blot (protocol above). […]
# To test if Methylene blue also potentiates DMF-mediated FXN induction, FRDA patient lymphoblasts were cultured for 48 hr in the presence of 3 micromolar dimethyl fumarate and 3 micromolar methylene blue in 6 well dishes. Cells were harvested and whole cell lysates were analyzed by Western blot (protocol above).
# [5] = system: frataxin (FXN) protein in FRDA lymphoblasts; assay: In-cell Western of FXN in FRDA lymphoblasts (synergy of FXN-inducing drugs); assay type: cell-based, human; conditions: 5 micromolar dyclonine with dose-response of dimethyl fumarate, 48 hours
# Method: To evaluate potential synergy of identified FXN-inducing drugs, a dose-response of dimethyl fumarate in the absence or presence of 5 micromolar dyclonine was determined in FRDA lymphoblasts incubated for 48 hours in 96 well plates. Whole cells were fixed and permeabilized and for analyzed using in-cell Western technique (protocol below).
# In-Cell Western Blot Protocol: 50,000 cells/well were plated in black walled clear bottom 96-well poly-d-lysine coated plates. After drug treatment, media was removed by aspiration and cells were fixed by addition of 100 ul/well of 3.7% formaldehyde in PBS. After 30 minutes, fixing solution was removed and 100 ul/well of 0.1% TritonX100 in PBS was added to all wells. After 40 minutes, cells were blocked with 100 ul blocking buffer (Odyssey, Lincoln, Nebr., USA) for 1 h and incubated with primary antibodies in blocking buffer: anti-frataxin (Mitosciences, Eugene, Oreg.) anti-β-actin (Sigma) for one hour. Cells were washed three times with 1× Tris-buffered saline with Tween 20, and then incubated with 100 ul/well of IRDye 680CW- and IRDye 800CW-coupled (Odyssey) secondary antibodies for 1 h. The cells were washed three times with 1× Tris-buffered saline with Tween 20 and signal was visualized with a LI-COR infrared imager (Odyssey). The pictures were processed by Odyssey version 3.0 infrared imaging software.
# [6] = system: Nrf2 target antioxidant response element (ARE); assay: Nrf2/ARE luciferase assay in reporter HeLa cell line; assay type: cell-based, human; conditions: for Nrf2/ARE activity (ARE-luciferase): 24 hours, threshold mean+2× Standard deviation of the vehicle control
# Method: To evaluate the mechanism of FXN induction of the […] that protected from diamide, the potency of each to activate the Nrf2 target antioxidant response element (ARE) was evaluated. 10 of the 20 frataxin inducers interacted with the Nrf2 pathway in a significant way, either positively or negatively. The dashed line=mean+2×SD. […] Dyclonine's induction of ARE/Nrf2 activity was dose-dependent (FIG. 13B).
# The Nrf2 reporter HeLa cell line was generated using the Lenti Antioxidant Response Reporter (Qiagen, Valencia, Calif.) system, which expressed firefly luciferase gene and the ARE transcriptional response element. 15,000 cells/well were plated in 90 ul in phenol-free DMEM media in white wall/bottom 96 well plates. Drugs were added and plates incubated at 37 C for 24 hours. 75 microliters of Bright Glo Luciferase Assay Reagent (Promega, Madison, Wis.) with combined lysis solution was added to all wells and allowed to incubate for 5 minutes at room temperature. Luminescence was then read with a PolarStar Omega plate reader (BMG LabTech, Cary, N.C.).
# [7] = system: frataxin (FXN) protein in YG8 FRDA transgenic mouse; assay: Frataxin level in YG8 FRDA transgenic mouse model (Western blot of cerebellum and splenocytes); assay type: in vivo; conditions: for FXN expression in vivo, FXN/actin densitometry: hemizygous YG8 mice; for frataxin in brains and other tissues of the animal model of FRDA: result in words
# Method: Dyclonine increases frataxin levels in vivo. To determine ability of dyclonine to reverse the in vivo FXN protein defect, the YG8 FRDA transgenic mouse model was chosen. Hemizygous animals with the least frataxin were separated into vehicle and treatment groups. Homozygous mice (two copies of FXN gene) were used as positive control. Animals were dosed daily with 1 mg/kg dyclonine via intraperitoneal injection for 6 days. At the end of the study, the animals were sacrificed, and processed for biochemical analysis, i.e. Western blots of treated and vehicle groups of Cerebellum and splenocyte frataxin level. Western blot of cerebellum and splenocytes is shown (FIG. 6A) and densitometry of FXN/actin normalization (FIG. 6B) showing dyclonine induces FXN expression in vivo by 1.5-2 fold.
# Of these 20, 8 were tested in the YG8 transgenic mouse model. […] Animals were dosed daily with 1-10 mg/kg drug via intraperitoneal injection for 6 days. At the end of the study, the animals were sacrificed, and processed for biochemical analysis, i.e. Western blots (protocol above) of treated and vehicle groups of Cerebellum and splenocyte frataxin level. Western blot of cerebellum is shown (FIG. 7B) and densitometry of FXN/actin normalization (FIG. 7A) showing dimethyl fumarate, dyclonine, methylene blue, and nifursol induce FXN expression in vivo by 1.5-2 fold.
# To determine ability of dimethyl fumarate to reverse the in vivo FXN protein defect, the YG8 FRDA transgenic mouse model was chosen. Hemizygous animals with largest FXN defect, were separated into vehicle and treatment groups. Homozygous mice were used as positive control. Animals were dosed daily with 5 mg/kg dimethyl fumarate via intraperitoneal injection for 6 days. A non-specific HDAC inhibitor was used as a positive control, dosed at 1 mg/kg. At the end of the study, the animals were sacrificed, and processed for biochemical analysis, i.e. Western Blots of treated and vehicle groups of cerebellum and splenocyte frataxin level.
compound,measurement,setting,value
CN(C)C(=O)/N=N/C(=O)N(C)C [diamide],death of neurons with frataxin deficiency on treatment,[1],died more rapidly
Cc1cc2nc3ccc(N(C)C)cc3[s+]c2cc1N [tolonium cl],EC50,[2],100 ± 10 nM
same,"maximum effect of protection from diamide toxicity, fold increase from baseline",[2],1.9±0.1 fold
CCCCOc1ccc(C(=O)CCN2CCCCC2)cc1 [dyclonine],frataxin expression in HeLa cells,"[3]; 48 hr, 10 micromolar dyclonine, result in words",Induces Frataxin Expression
same,protection from diamide toxicity,[2],protected FRDA cells from diamide induced oxidative stress; also recorded: dose dependent protection
same,frataxin expression in FRDA lymphoblasts,"[4]; 10 micromolar dyclonine, result in words",Induces Frataxin Expression
same,potentiation of DMF FXN induction,[5],potentiated DMF FXN induction
same,Nrf2/ARE activity (ARE-luciferase),[6],induced Nrf2/ARE activity
same,dose dependence of induction of ARE/Nrf2 activity,[6]; FIG. 13B,dose-dependent
same,"FXN expression in vivo, FXN/actin densitometry","[7]; 1 mg/kg daily intraperitoneal for 6 days, cerebellum and splenocytes",1.5-2 fold
same,frataxin in brains and other tissues of the animal model of FRDA,[7],increased frataxin
COC(=O)/C=C/C(=O)OC [dimethyl fumarate],FXN induction in HeLa cells,"[3]; 48 hr, 0.03-30 micromolar dimethyl fumarate, n=3",1.37 fold
same,significance of FXN induction by concentration,"[3]; at 1, 10 and 30 micromolar dimethyl fumarate, 48 hr (FIG. 9C)",Significant FXN induction
same,protection from diamide toxicity,[2],neuroprotective; also recorded: dose-dependent
same,EC50,[2],1300 ± 800 nM
same,"maximum effect of protection from diamide toxicity, fold increase from baseline",[2],1.9±0.2 fold
same,FXN induction in FRDA lymphoblasts,"[4]; 0.03-30 micromolar dimethyl fumarate, n=3",2.4 fold
same,Nrf2/ARE activity (ARE-luciferase),[6],induced Nrf2/ARE activity
same,"FXN expression in vivo, FXN/actin densitometry","[7]; 5 mg/kg daily intraperitoneal for 6 days, cerebellum, p<0.05",1.5-2 fold
same,frataxin in brains and other tissues of the animal model of FRDA,[7],increased frataxin
CN(C)c1ccc2nc3ccc(=[N+](C)C)cc-3sc2c1 [methylene blue],protection from diamide toxicity,[2],neuroprotective
same,potentiation of DMF-mediated FXN induction,"[4]; 3 micromolar methylene blue with 3 micromolar dimethyl fumarate, Western blot",potentiates DMF FXN induction
same,Fold FXN induction in FRDA lymphoblasts,"[4]; 10 nanomolar methylene blue, n=2",1.7 fold
same,frataxin in brains and other tissues of the animal model of FRDA,[7],increased frataxin
O[C@@H](CS)[C@@H](O)CS [DTT],reversal of sensitivity to diamide,[1]; frataxin deficient DRG cell line / Friedreich's patient fibroblasts,could be reversed
mepartricin,Nrf2/ARE activity (ARE-luciferase),[6],induced Nrf2/ARE activity
CC(=O)OC[C@H]1O[C@@H]([S-])[C@H](OC(C)=O)[C@@H](OC(C)=O)[C@@H]1OC(C)=O.CCP(CC)CC.[Au+] [auranofin],death of neurons with frataxin deficiency on treatment,[1],died more rapidly
O=C(N/N=C/c1ccc([N+](=O)[O-])o1)c1cc([N+](=O)[O-])cc([N+](=O)[O-])c1O [nifursol],protection from diamide toxicity,[2],neuroprotective
same,frataxin in brains and other tissues of the animal model of FRDA,[7],increased frataxin
